Assay results: ChEMBL document CHEMBL1201862, “PubChem BioAssay data set” (2004)
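Protocol summary: plate cells (96-well), add compound at 5 concentrations, incubate 48 h, interpolate endpoints linearly. GI50 = concentration required for 50% inhibition of growth.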 The source made the active and inactive calls. Cut-off read from the data, not from the text of the source: active = GI50 up to about 1.1 µM and inactive = higher.

Key:
Test in all cases: DTP human tumour cell line panel, 48 h
A549 = system: A549
ACHN = system: ACHN
M14 = system: M14
MDA-MB-435 = system: MDA-MB-435
MOLT-4 = system: MOLT-4
Malme-3M = system: Malme-3M
OVCAR-3 = system: OVCAR-3
OVCAR-4 = system: OVCAR-4
OVCAR-5 = system: OVCAR-5
OVCAR-8 = system: OVCAR-8
PC-3 = system: PC-3
RXF 393 = system: RXF 393
SK-MEL-2 = system: SK-MEL-2
SR = system: SR
SW-620 = system: SW-620
T47D = system: T47D
UACC-62 = system: UACC-62
BT-549 = system: BT-549
SK-MEL-5 = system: SK-MEL-5
SK-OV-3 = system: SK-OV-3

SMILES | GI50 (A549) | GI50 (ACHN) | GI50 (M14) | GI50 (MDA-MB-435) | GI50 (MOLT-4) | GI50 (Malme-3M) | GI50 (OVCAR-3) | GI50 (OVCAR-4) | GI50 (OVCAR-5) | GI50 (OVCAR-8) | GI50 (PC-3) | GI50 (RXF 393) | GI50 (SK-MEL-2) | GI50 (SR) | GI50 (SW-620) | GI50 (T47D) | GI50 (UACC-62) | GI50 (BT-549) | GI50 (SK-MEL-5) | GI50 (SK-OV-3)
Cc1cc(NC(=O)NC(=O)c2ccccc2NC(=O)CN)ccc1Oc1ncc(Br)cn1 | 0.879 µM (active) | 9.44 µM (inactive) | 0.592 µM (active) | 0.145 µM (active) | 2.5 µM (inactive) | 0.0632 µM (active) | 0.217 µM (active) | 20 µM (inactive) | 12.3 µM (inactive) | 1.17 µM (inactive) | 0.217 µM (active) | 0.0439 µM (active) | 0.437 µM (active) | 1.06 µM (active) | 0.618 µM (active) | 12.3 µM (inactive) | 0.207 µM (active) |  |  | 
CCN(CC)C(=O)COc1cc2c(O)c3c(O)c(C)c4c(c13)C(=O)C(C)(OC=CC(OC)C(C)C(OC(C)=O)C(C)C(O)C(C)C(O)C(C)C=CC=C(C)C(=O)N2)O4 (configuration not stated) | > 100 µM (inactive) | > 100 µM (inactive) | > 100 µM (inactive) |  | > 100 µM (inactive) | > 100 µM (inactive) | > 100 µM (inactive) | > 100 µM (inactive) | > 100 µM (inactive) | > 100 µM (inactive) | > 100 µM (inactive) | > 100 µM (inactive) | > 100 µM (inactive) | > 100 µM (inactive) | > 100 µM (inactive) | > 100 µM (inactive) | > 100 µM (inactive) | > 100 µM (inactive) | > 100 µM (inactive) | > 100 µM (inactive)
N#CCN(Cc1ccccc1)[C@@H]1CCC[C@]1(O)C#Cc1ccc2c(c1)OCO2 | 18.5 µM (inactive) | 18 µM (inactive) | 16.8 µM (inactive) | 18.5 µM (inactive) | 16.4 µM (inactive) | 18.2 µM (inactive) | 14.9 µM (inactive) | 15 µM (inactive) | 16.1 µM (inactive) | 16.7 µM (inactive) | 19.7 µM (inactive) | 15.2 µM (inactive) | 16.4 µM (inactive) | 17.8 µM (inactive) | 22.5 µM (inactive) | 16.6 µM (inactive) | 16.1 µM (inactive) |  | 16.4 µM (inactive) | 25.8 µM (inactive)
c1cncc(C(Nc2cccc3cccnc23)Nc2cccc3cccnc23)c1 | > 100 µM (inactive) | > 100 µM (inactive) | > 100 µM (inactive) | > 100 µM (inactive) |  |  | > 100 µM (inactive) |  | > 100 µM (inactive) | > 100 µM (inactive) | > 100 µM (inactive) | 77.3 µM (inactive) | > 100 µM (inactive) |  | > 100 µM (inactive) | > 100 µM (inactive) | > 100 µM (inactive) | > 100 µM (inactive) | > 100 µM (inactive) | > 100 µM (inactive)
CCCCCCCCCCOc1ccc(/N=N/c2nnc(-c3ccc(OCCCCC)cc3)s2)cc1 | > 100 µM (inactive) | 93.5 µM (inactive) | > 100 µM (inactive) | 34.5 µM (inactive) | > 100 µM (inactive) | > 100 µM (inactive) | 97.3 µM (inactive) | > 100 µM (inactive) | > 100 µM (inactive) | > 100 µM (inactive) | > 100 µM (inactive) | 65 µM (inactive) |  |  | > 100 µM (inactive) | > 100 µM (inactive) | 48 µM (inactive) | > 100 µM (inactive) | > 100 µM (inactive) | > 100 µM (inactive)
O=C(Cn1c(C(=O)/C=C/c2cccs2)nc2ccccc21)c1ccc(Cl)cc1 | 23.3 µM (inactive) | 26.6 µM (inactive) | 18.6 µM (inactive) | 12.7 µM (inactive) |  | 13.6 µM (inactive) | 15.5 µM (inactive) | 14.6 µM (inactive) | > 100 µM (inactive) |  |  | 29.2 µM (inactive) | 6 µM (inactive) | 3.09 µM (inactive) | 25.6 µM (inactive) | 36.3 µM (inactive) | 25.2 µM (inactive) | 21 µM (inactive) | 14.4 µM (inactive) | 32.9 µM (inactive)
O=c1[nH]c(=O)n(C2CC(O)C(CO)O2)cc1OCCCc1ccccc1 (configuration not stated) | > 100 µM (inactive) | > 100 µM (inactive) | > 100 µM (inactive) | > 100 µM (inactive) | > 100 µM (inactive) | > 100 µM (inactive) | > 100 µM (inactive) | > 100 µM (inactive) | > 100 µM (inactive) | > 100 µM (inactive) | > 100 µM (inactive) | > 100 µM (inactive) |  |  |  | > 100 µM (inactive) | > 100 µM (inactive) | > 100 µM (inactive) | > 100 µM (inactive) | > 100 µM (inactive)
Cc1ccc([Se](=C(C(=O)c2ccccc2)C(=O)c2ccccc2)c2ccc(C)cc2)cc1 | 25.3 µM (inactive) | 24.5 µM (inactive) | 33.6 µM (inactive) | 20.5 µM (inactive) | 16 µM (inactive) | 18.4 µM (inactive) | 20.6 µM (inactive) | 16.4 µM (inactive) | 38.8 µM (inactive) | 26.4 µM (inactive) | 23.3 µM (inactive) | 68.1 µM (inactive) | 30.8 µM (inactive) | 12.7 µM (inactive) | 29.5 µM (inactive) | 34.3 µM (inactive) | 20.7 µM (inactive) |  | 18.7 µM (inactive) | 43.7 µM (inactive)
